Results reported in ChEMBL document CHEMBL1201862, “PubChem BioAssay data set” (2004).
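Five concentrations, 48 hours, 96-well plates. GI50 = concentration required for 50% inhibition of growth.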 Activity calls are given as the source filed them. Cut-off read from the data, not from the text of the source: active = GI50 up to about 1.1 µM and inactive = higher.

How the values were obtained:
Assay in all cases: inhibition of tumour cell growth, NCI panel, 48 h
786-0 = test system: 786-0
A549 = test system: A549
CCRF-CEM = test system: CCRF-CEM
HL-60 = test system: HL-60
HT-29 = test system: HT-29
KM12 = test system: KM12
MOLT-4 = test system: MOLT-4
NCI-H226 = test system: NCI-H226
PC-3 = test system: PC-3
SF-295 = test system: SF-295
SK-MEL-2 = test system: SK-MEL-2
A498 = test system: A498
ACHN = test system: ACHN
HCT-116 = test system: HCT-116
LOX IMVI = test system: LOX IMVI
Malme-3M = test system: Malme-3M
NCI-H460 = test system: NCI-H460
UACC-62 = test system: UACC-62
OVCAR-4 = test system: OVCAR-4

| Structure (SMILES) | GI50 (786-0) | GI50 (A549) | GI50 (CCRF-CEM) | GI50 (HL-60) | GI50 (HT-29) | GI50 (KM12) | GI50 (MOLT-4) | GI50 (NCI-H226) | GI50 (PC-3) | GI50 (SF-295) | GI50 (SK-MEL-2) | GI50 (A498) | GI50 (ACHN) | GI50 (HCT-116) | GI50 (LOX IMVI) | GI50 (Malme-3M) | GI50 (NCI-H460) | GI50 (UACC-62) | GI50 (OVCAR-4) |
| --- | --- | --- | --- | --- | --- | --- | --- | --- | --- | --- | --- | --- | --- | --- | --- | --- | --- | --- | --- |
| O=C(O)c1ccc(-c2nc3cc(Cl)ccc3[nH]2)cc1 | > 100 µM (inactive) | > 100 µM (inactive) | > 100 µM (inactive) | > 100 µM (inactive) | > 100 µM (inactive) | > 100 µM (inactive) | > 100 µM (inactive) | > 100 µM (inactive) | > 100 µM (inactive) | > 100 µM (inactive) | > 100 µM (inactive) | – | – | – | – | – | – | – | – |
| Cc1ccc(NC(=O)C2C(=O)N(c3ccc(C)c(C)c3)C(=O)/C2=N/O)cc1C (stereo unspecified) | 68.1 µM (inactive) | > 100 µM (inactive) | > 100 µM (inactive) | > 100 µM (inactive) | > 100 µM (inactive) | > 100 µM (inactive) | > 100 µM (inactive) | > 100 µM (inactive) | – | > 100 µM (inactive) | > 100 µM (inactive) | > 100 µM (inactive) | > 100 µM (inactive) | > 100 µM (inactive) | 20.9 µM (inactive) | > 100 µM (inactive) | 44.7 µM (inactive) | > 100 µM (inactive) | – |
| COC1(OC)C2(Cl)C(Cl)=C(Cl)C1(Cl)C1C2C2CC1(C(=O)O)c1ccccc12 (stereo unspecified) | 16.4 µM (inactive) | 28.1 µM (inactive) | 4.74 µM (inactive) | 22.1 µM (inactive) | 30.3 µM (inactive) | – | 13.6 µM (inactive) | 26.2 µM (inactive) | – | 25.4 µM (inactive) | – | 81.1 µM (inactive) | 35.7 µM (inactive) | 17.5 µM (inactive) | 16.7 µM (inactive) | 16 µM (inactive) | 20.7 µM (inactive) | 16.5 µM (inactive) | 15 µM (inactive) |
| C=C1c2[nH]c3c([N+](=O)[O-])c(OC)ccc3c2CCN1C(C)=O | > 100 µM (inactive) | > 100 µM (inactive) | > 100 µM (inactive) | > 100 µM (inactive) | > 100 µM (inactive) | > 100 µM (inactive) | > 100 µM (inactive) | > 100 µM (inactive) | – | > 100 µM (inactive) | > 100 µM (inactive) | > 100 µM (inactive) | > 100 µM (inactive) | > 100 µM (inactive) | > 100 µM (inactive) | – | > 100 µM (inactive) | 61.9 µM (inactive) | > 100 µM (inactive) |
| O=C1Cc2c([nH]c3ccccc23)-c2ccccc2N1 [PAULLONE] | 75.3 µM (inactive) | 36.4 µM (inactive) | 22.2 µM (inactive) | 15.4 µM (inactive) | 26 µM (inactive) | 18.3 µM (inactive) | 17.1 µM (inactive) | 27.8 µM (inactive) | – | 37.8 µM (inactive) | 43.3 µM (inactive) | 67.8 µM (inactive) | 36.6 µM (inactive) | 16.7 µM (inactive) | 16.5 µM (inactive) | 61.1 µM (inactive) | 34.7 µM (inactive) | – | 43.1 µM (inactive) |
| O=C(Cc1ccccc1)NN1C(=O)C(Cl)C1c1cccc([N+](=O)[O-])c1 (stereo unspecified) | 12.3 µM (inactive) | > 100 µM (inactive) | 2.33 µM (inactive) | 10.4 µM (inactive) | 3.68 µM (inactive) | > 90.4 µM (inactive) | 12.4 µM (inactive) | > 42.9 µM (inactive) | – | > 100 µM (inactive) | 31.7 µM (inactive) | > 100 µM (inactive) | > 60.5 µM (inactive) | 23.4 µM (inactive) | 5.31 µM (inactive) | > 78.5 µM (inactive) | 35.2 µM (inactive) | 31.3 µM (inactive) | 29.8 µM (inactive) |
| CCOC(=O)C(C)(c1c(C)[nH]c2ccccc12)c1c(C)[nH]c2ccccc12 | 19.1 µM (inactive) | 19 µM (inactive) | 17.9 µM (inactive) | 12.1 µM (inactive) | 16.7 µM (inactive) | 14.2 µM (inactive) | 13.6 µM (inactive) | 13.5 µM (inactive) | – | 14 µM (inactive) | 18.8 µM (inactive) | 17.8 µM (inactive) | 19.5 µM (inactive) | 12.5 µM (inactive) | – | 17.3 µM (inactive) | 17.6 µM (inactive) | 14.2 µM (inactive) | 14.9 µM (inactive) |
| CCCC12Cc3c(OC)ccc(OC)c3CC(Cc3c(OC)ccc(OC)c31)C2=O (stereo unspecified) | > 100 µM (inactive) | > 100 µM (inactive) | > 100 µM (inactive) | 7.21 µM (inactive) | > 100 µM (inactive) | > 100 µM (inactive) | 7.36 µM (inactive) | 24.8 µM (inactive) | – | > 100 µM (inactive) | > 100 µM (inactive) | > 100 µM (inactive) | > 100 µM (inactive) | 10.8 µM (inactive) | – | 69.3 µM (inactive) | > 100 µM (inactive) | – | 18.8 µM (inactive) |
| Cc1ccc(N(C(=O)CC(=O)N2N=C(c3ccccc3)C(/N=N/c3ccc([N+](=O)[O-])cc3)C2=O)C(=O)c2ccc(Cl)cc2)cc1 (stereo unspecified) | 14.4 µM (inactive) | 22.7 µM (inactive) | 5.27 µM (inactive) | 19.2 µM (inactive) | 31 µM (inactive) | 20.4 µM (inactive) | > 42.1 µM (inactive) | 20.7 µM (inactive) | – | 9.2 µM (inactive) | > 38.8 µM (inactive) | 6.14 µM (inactive) | 28.4 µM (inactive) | 8.59 µM (inactive) | 3.7 µM (inactive) | > 100 µM (inactive) | 19 µM (inactive) | 30.3 µM (inactive) | 36.1 µM (inactive) |
| CCSC1(SCC)CCN(/C=N/C(C)(C)C)C1 | > 100 µM (inactive) | > 100 µM (inactive) | 76.4 µM (inactive) | 29.7 µM (inactive) | > 100 µM (inactive) | > 100 µM (inactive) | > 100 µM (inactive) | > 100 µM (inactive) | – | > 100 µM (inactive) | > 100 µM (inactive) | > 100 µM (inactive) | > 100 µM (inactive) | 78 µM (inactive) | 52.6 µM (inactive) | > 100 µM (inactive) | > 100 µM (inactive) | > 100 µM (inactive) | > 100 µM (inactive) |
| COc1ccc2c(c1OC)C1=C(C2=O)c2cc3c(cc2CCN1)OCO3 | 31.9 µM (inactive) | 47.2 µM (inactive) | 26.1 µM (inactive) | 19.2 µM (inactive) | 18.9 µM (inactive) | 20.4 µM (inactive) | 21.6 µM (inactive) | 2.9 µM (inactive) | – | 33.5 µM (inactive) | 29 µM (inactive) | 55.8 µM (inactive) | 3.42 µM (inactive) | 32.8 µM (inactive) | 24.8 µM (inactive) | 69.3 µM (inactive) | 32.4 µM (inactive) | 35.4 µM (inactive) | 4.35 µM (inactive) |
| CC(C)CC(=O)NS(=O)(=O)c1ccccc1 | > 100 µM (inactive) | > 100 µM (inactive) | > 100 µM (inactive) | > 100 µM (inactive) | > 100 µM (inactive) | > 100 µM (inactive) | > 100 µM (inactive) | > 100 µM (inactive) | – | > 100 µM (inactive) | > 100 µM (inactive) | > 100 µM (inactive) | > 100 µM (inactive) | > 100 µM (inactive) | > 100 µM (inactive) | > 100 µM (inactive) | > 100 µM (inactive) | > 100 µM (inactive) | > 100 µM (inactive) |
| COC1C=CC23c4cc5c(cc4C(O)OC2CN(C)C3C1)OCO5 (stereo unspecified) | 1.64 µM (inactive) | 2.4 µM (inactive) | 1.84 µM (inactive) | 1.08 µM (active) | – | 2.13 µM (inactive) | 1.34 µM (inactive) | 1.64 µM (inactive) | – | 1.69 µM (inactive) | – | 3.1 µM (inactive) | 1.32 µM (inactive) | 1.07 µM (active) | 1.29 µM (inactive) | 1.9 µM (inactive) | 2.69 µM (inactive) | 4.13 µM (inactive) | 1.35 µM (inactive) |
| [N-]=[N+]=NC1=C(N=[N+]=[N-])c2cccc3cccc(c23)C1=O | > 100 µM (inactive) | > 100 µM (inactive) | 67.9 µM (inactive) | – | 76.7 µM (inactive) | 76.2 µM (inactive) | 39.8 µM (inactive) | > 100 µM (inactive) | > 100 µM (inactive) | > 100 µM (inactive) | > 100 µM (inactive) | > 100 µM (inactive) | > 100 µM (inactive) | > 100 µM (inactive) | > 100 µM (inactive) | > 100 µM (inactive) | 58.9 µM (inactive) | > 100 µM (inactive) | > 100 µM (inactive) |
| CC(C)(C)C1=CC(=N/N=c2\scc(-c3ccccc3)n2-c2ccccc2)C=C(C(C)(C)C)C1=O | > 100 µM (inactive) | > 100 µM (inactive) | > 100 µM (inactive) | > 100 µM (inactive) | > 100 µM (inactive) | > 100 µM (inactive) | > 100 µM (inactive) | > 100 µM (inactive) | – | > 100 µM (inactive) | > 100 µM (inactive) | > 100 µM (inactive) | > 100 µM (inactive) | > 100 µM (inactive) | > 100 µM (inactive) | > 100 µM (inactive) | > 100 µM (inactive) | > 100 µM (inactive) | > 100 µM (inactive) |
| COc1ccc(-c2cc(=O)c3c(OC)cccc3o2)c(OC)c1OC | > 100 µM (inactive) | > 100 µM (inactive) | > 100 µM (inactive) | 63.1 µM (inactive) | > 100 µM (inactive) | > 100 µM (inactive) | 54.6 µM (inactive) | > 100 µM (inactive) | – | > 100 µM (inactive) | > 100 µM (inactive) | > 100 µM (inactive) | > 100 µM (inactive) | > 100 µM (inactive) | > 100 µM (inactive) | > 100 µM (inactive) | > 100 µM (inactive) | > 100 µM (inactive) | > 100 µM (inactive) |
